The values that follow come from article PMC6478789, “A chemical toolbox for the study of bromodomains and epigenetic signaling” (Nature Communications, 2019).

The pKd is the negative decadic logarithm of the Kd, by convention in mol/L. A low value points to a large Kd. The term Kd denotes the concentration at which binding is half-saturated. Lower therefore signals higher affinity.

pKd: −log10 of the molar value. Bounds are passed on as bounds.

One assay concerns the target T1, BRD9 (Homo sapiens, UniProt Q9H8M2).
T1 construct: purchased DiscoverX BROMOscan (bromodomains); SGC in-house methyltransferase panel
The experiment in a line: Temperature shift assay (bromodomains). The format is binding. As to conditions: compared to ITC KD. Here is the method:
(§1) Temperature shift assays have been described by Fedorov et al.[46]. Recombinant protein domains (bromodomain or kinases) at a concentration of 2 μM in 10 mM HEPES, pH 7.5, and 500 mM NaCl were mixed with 10 μM of chemical probes. Temperature-dependent protein unfolding profiles were measured using a Real-Time PCR Mx3005p machine (Stratagene).

The next assay addresses T2, CBP (Homo sapiens, UniProt Q92793).
T2 construct: Recombinant protein domains (bromodomain or kinases) at a concentration of 2 μM
The experiment in a line: Temperature shift assay (bromodomains). The class given is binding. Particulars: compared to ITC KD. On the procedure: as §1

Another assay concerns the target T3, TAF1L(2) (Homo sapiens, UniProt Q8IZX4).
T3 construct: purchased DiscoverX BROMOscan (bromodomains); SGC in-house methyltransferase panel
The experiment in a line: Temperature shift assay (bromodomains). The class given is binding. As to conditions: compared to ITC KD. Here is the method:
as §1

The next assay deals with C2C12 myoblast cells. Briefly: Gene-expression analysis (microarray). The class given is cell-based, mouse. As to conditions: 12 h; 500 nM (JQ1, LP-99), 2 μM (GSK2801, BAZ2-ICR, BSP). On the procedure:
Total RNA was extracted using the PureLink^TM RNA mini kit (Thermo Fisher Scientific, 12183018A) as per the manufacturer’s protocol.
RNA samples were processed for oligonucleotide microarray profiling utilizing the Affymetrix Clariom^TM S Assay HT mouse. Quality controls were carried out in R (v.3.5.1) and Bioconductor[71] (v.3.7) using the arrayQualityMetrics package (v.3.36.0) taking into account array intensity distributions, distance between arrays, and variance mean dependence. Principal component analysis was used to decide which arrays to process together. After quality control, arrays were corrected for background, normalized, and log2-transformed together using the rma function of the oligo package (v.1.44)[73] in R/Bioconductor. Probes with small variance across samples were filtered out using the genefilter (v.1.62) package, employing the nsFilter function and an interquartile range cut-off of 0.28 (or >log(1.2), determined by the midpoint of the shortest interval containing half of the data). This reduced the number of probes of the Clariom^TM S array from 29,129 to 14,538.
Differential expression analysis was conducted using the limma package (v.3.36.2)[74], employing a linear model followed by empirical Bayesian analysis to determine differential expression between not-treated and treated samples.

A further assay addresses T4, ATAD2A (Homo sapiens, UniProt Q6PL18).
T4 sequence (Q6PL18 980-1092 limits assumed): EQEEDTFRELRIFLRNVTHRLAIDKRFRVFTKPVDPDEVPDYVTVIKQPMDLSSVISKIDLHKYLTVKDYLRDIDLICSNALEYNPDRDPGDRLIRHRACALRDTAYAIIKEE
Briefly: BROMOscan ligand-binding assay. As to conditions: KD, BROMOscan Gene Symbol ATAD2A.

The next assay concerns the target T5, ATAD2B (Homo sapiens, UniProt Q9ULI0).
T5 sequence (Q9ULI0 951-1066 limits assumed): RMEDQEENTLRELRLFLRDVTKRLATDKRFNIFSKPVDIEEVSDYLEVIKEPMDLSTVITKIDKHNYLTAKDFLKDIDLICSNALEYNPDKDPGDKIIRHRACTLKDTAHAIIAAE
The experiment in a line: BROMOscan ligand-binding assay. Particulars: KD, BROMOscan Gene Symbol ATAD2B.

A further assay has as its target T6, BAZ1B (Homo sapiens, UniProt Q9UIG0).
T6 sequence (Q9UIG0 1339-1443 limits assumed): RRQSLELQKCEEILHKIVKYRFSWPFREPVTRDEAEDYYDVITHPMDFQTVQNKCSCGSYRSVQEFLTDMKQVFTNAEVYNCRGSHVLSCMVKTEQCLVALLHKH
The experiment in a line: BROMOscan ligand-binding assay. Particulars: KD, BROMOscan Gene Symbol BAZ1B.

Another assay addresses T7, BAZ2B (Homo sapiens, UniProt Q9UIF8).
T7 sequence (Q9UIF8 2060-2164 limits assumed): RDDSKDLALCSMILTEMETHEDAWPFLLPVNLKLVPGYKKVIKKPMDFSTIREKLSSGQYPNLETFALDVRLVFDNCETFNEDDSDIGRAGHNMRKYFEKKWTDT
The experiment in a line: BROMOscan ligand-binding assay. As to conditions: KD, BROMOscan Gene Symbol BAZ2B.

A further assay deals with BRD8(1) (Homo sapiens, UniProt Q9H0E9). Briefly: BROMOscan ligand-binding assay. Particulars: KD, BROMOscan Gene Symbol BRD8(1).
Sequence of BRD8(1) (Q9H0E9 706-811 limits assumed): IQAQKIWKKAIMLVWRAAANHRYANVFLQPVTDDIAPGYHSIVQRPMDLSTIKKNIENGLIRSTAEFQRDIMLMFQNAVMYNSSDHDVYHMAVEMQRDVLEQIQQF
The target in another assay is BRD8(2) (Homo sapiens, UniProt Q9H0E9). The experiment in a line: BROMOscan ligand-binding assay. As to conditions: KD, BROMOscan Gene Symbol BRD8(2).
Sequence of BRD8(2) (Q9H0E9 1099-1207 limits assumed): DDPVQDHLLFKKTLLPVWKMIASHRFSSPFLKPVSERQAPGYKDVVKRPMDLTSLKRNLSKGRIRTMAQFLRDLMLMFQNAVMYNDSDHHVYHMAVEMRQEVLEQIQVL
The target in a further assay is T8, BRPF1 (Homo sapiens, UniProt P55201).
T8 sequence (P55201 628-732 limits assumed): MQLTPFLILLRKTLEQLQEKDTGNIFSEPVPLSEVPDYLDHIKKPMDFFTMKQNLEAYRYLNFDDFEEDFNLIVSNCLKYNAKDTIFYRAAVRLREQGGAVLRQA
The experiment in a line: BROMOscan ligand-binding assay. As to conditions: KD, BROMOscan Gene Symbol BRPF1.

The target of another assay is T9, EP300 (Homo sapiens, UniProt Q09472).
T9 sequence (Q09472 1049-1156 limits assumed): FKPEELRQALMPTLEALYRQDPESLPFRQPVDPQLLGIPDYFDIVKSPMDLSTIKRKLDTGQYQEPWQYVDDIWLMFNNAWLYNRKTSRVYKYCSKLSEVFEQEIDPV
Briefly: BROMOscan ligand-binding assay. As to conditions: KD, BROMOscan Gene Symbol EP300.

The next assay addresses T10, GCN5L2 (Homo sapiens, UniProt Q92830).
T10 sequence (Q92830 728-832 limits assumed): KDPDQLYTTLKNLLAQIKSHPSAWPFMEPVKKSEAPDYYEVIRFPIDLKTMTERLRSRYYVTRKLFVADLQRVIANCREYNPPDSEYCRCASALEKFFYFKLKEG
Briefly: BROMOscan ligand-binding assay. Particulars: KD, BROMOscan Gene Symbol GCN5L2.

In a further assay the target is SMARCA2 (Homo sapiens, UniProt P51531). Briefly: BROMOscan ligand-binding assay. As to conditions: KD, BROMOscan Gene Symbol SMARCA2.
Sequence of SMARCA2 (P51531 1-1572 isoform P51531-2): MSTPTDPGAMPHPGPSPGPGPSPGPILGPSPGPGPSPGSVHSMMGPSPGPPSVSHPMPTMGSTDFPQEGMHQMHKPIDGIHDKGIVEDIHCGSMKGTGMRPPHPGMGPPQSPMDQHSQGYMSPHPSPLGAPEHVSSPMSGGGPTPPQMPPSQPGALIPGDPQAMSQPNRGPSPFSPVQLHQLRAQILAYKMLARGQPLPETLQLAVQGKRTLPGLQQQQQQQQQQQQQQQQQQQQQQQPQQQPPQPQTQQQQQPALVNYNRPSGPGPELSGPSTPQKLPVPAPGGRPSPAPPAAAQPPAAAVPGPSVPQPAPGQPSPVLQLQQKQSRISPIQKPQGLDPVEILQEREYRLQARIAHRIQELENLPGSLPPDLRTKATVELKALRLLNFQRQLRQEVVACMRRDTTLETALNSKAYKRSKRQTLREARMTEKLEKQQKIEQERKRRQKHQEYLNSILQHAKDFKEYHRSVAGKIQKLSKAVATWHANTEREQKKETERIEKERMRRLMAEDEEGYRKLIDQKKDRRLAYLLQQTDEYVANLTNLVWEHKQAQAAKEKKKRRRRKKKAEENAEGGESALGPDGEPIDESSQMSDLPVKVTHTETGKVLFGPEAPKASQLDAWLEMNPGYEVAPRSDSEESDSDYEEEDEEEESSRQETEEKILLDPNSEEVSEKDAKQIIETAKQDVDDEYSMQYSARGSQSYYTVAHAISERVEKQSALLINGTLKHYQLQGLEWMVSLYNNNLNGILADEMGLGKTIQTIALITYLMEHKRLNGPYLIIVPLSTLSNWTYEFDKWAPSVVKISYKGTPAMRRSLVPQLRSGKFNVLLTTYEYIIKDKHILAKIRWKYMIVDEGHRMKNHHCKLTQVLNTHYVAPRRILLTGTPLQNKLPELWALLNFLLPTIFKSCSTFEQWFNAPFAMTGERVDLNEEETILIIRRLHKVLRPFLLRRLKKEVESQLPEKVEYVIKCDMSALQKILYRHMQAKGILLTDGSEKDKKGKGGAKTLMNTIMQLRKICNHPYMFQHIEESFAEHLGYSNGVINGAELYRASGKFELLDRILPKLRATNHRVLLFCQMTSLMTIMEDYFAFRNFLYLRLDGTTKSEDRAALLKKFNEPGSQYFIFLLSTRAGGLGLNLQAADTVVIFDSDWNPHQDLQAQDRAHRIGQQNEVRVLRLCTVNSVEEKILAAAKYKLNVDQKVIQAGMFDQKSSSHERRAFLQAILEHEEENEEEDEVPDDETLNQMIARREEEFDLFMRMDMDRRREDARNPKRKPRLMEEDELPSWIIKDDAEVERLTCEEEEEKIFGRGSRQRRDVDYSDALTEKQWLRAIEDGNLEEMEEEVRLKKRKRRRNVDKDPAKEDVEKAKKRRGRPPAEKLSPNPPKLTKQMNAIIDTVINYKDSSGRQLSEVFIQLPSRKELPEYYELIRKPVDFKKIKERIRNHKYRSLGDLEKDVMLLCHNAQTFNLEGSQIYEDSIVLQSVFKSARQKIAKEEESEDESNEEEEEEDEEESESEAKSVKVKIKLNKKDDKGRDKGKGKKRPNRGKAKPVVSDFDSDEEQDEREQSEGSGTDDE
The next assay deals with SMARCA2(iso.A) (Homo sapiens, UniProt P51531). Briefly: BROMOscan ligand-binding assay. As to conditions: KD, BROMOscan Gene Symbol SMARCA2(iso.A).
Sequence of SMARCA2(iso.A) (P51531 1378-1506 limits assumed): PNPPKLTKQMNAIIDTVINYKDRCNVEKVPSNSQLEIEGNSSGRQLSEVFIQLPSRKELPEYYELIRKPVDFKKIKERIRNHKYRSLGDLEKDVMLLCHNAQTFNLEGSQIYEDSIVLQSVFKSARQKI
A further assay deals with T11, TRIM33(PHD,BRD) (Homo sapiens, UniProt Q9UPN9).
T11 sequence (Q9UPN9 882-1087 limits assumed): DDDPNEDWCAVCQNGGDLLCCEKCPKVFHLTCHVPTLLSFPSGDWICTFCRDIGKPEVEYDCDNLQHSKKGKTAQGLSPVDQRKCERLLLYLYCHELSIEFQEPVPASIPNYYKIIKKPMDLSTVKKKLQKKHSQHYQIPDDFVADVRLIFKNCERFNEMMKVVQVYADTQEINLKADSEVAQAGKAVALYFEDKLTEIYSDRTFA
The experiment in a line: BROMOscan ligand-binding assay.

A further assay concerns the target WDR9(2) (Homo sapiens, UniProt Q9NSI6). The experiment in a line: BROMOscan ligand-binding assay.
[1] abbreviates: KD (BROMOscan), sheet prints no unit (nM).

Sequence of WDR9(2) (Q9NSI6 1313-1418 limits assumed): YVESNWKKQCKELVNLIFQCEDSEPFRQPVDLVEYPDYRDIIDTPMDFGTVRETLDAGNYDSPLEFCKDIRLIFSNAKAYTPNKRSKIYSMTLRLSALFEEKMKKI
T1 sequence (Q9H8M2 134-239): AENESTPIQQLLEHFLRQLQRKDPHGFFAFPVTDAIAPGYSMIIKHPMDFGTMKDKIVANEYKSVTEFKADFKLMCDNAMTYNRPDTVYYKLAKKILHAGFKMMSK
T2 sequence (Q92793 1085-1192 limits assumed): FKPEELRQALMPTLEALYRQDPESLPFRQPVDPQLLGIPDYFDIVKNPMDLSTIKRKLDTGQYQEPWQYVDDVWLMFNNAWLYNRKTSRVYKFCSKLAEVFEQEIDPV
T3 sequence (Q8IZX4 1523-1654 limits assumed): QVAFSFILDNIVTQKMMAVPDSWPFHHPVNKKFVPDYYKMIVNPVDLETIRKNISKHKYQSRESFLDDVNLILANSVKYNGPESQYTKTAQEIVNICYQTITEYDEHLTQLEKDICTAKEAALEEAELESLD
Source text for ATAD2A: (§2) BROMOscan is a binding assay based on the well-known KINOMEscan technology. This assay measures the binding of a DNA-tagged bromodomain to an immobilized BRD ligand. If an inhibitor is present, it will compete with the bromodomain binding to the immobilized ligand, resulting in reduction of a quantitative PCR (qPCR) signal in a dose-dependent manner.
Source text for ATAD2B: as §2
Source text for BAZ1B: as §2
Source text for BAZ2B: as §2
Source text for BRD8(1): as §2
Source text for BRD8(2): as §2
Source text for BRPF1: as §2
Source text for EP300: as §2
Source text for GCN5L2: as §2
Source text for SMARCA2(iso.A): as §2
Source text for TRIM33(PHD,BRD): as §2
Source text for WDR9(2): as §2

In the case of `CCOC(=O)Nc1cc(-c2ccc(C)c(NS(C)(=O)=O)c2)nn2c(C)nnc12` [Bromosporine], the values for the ΔTm result at BRD9, at CBP and at TAF1L(2) were “only modest ΔTm”, “relatively large ΔTm” and “only modest ΔTm”, respectively. Besides, the “changes in gene-expression levels” value with C2C12 myoblast cells is “significant changes in gene-expression levels”. Besides, the pKd at ATAD2A is 4.21; at ATAD2B, 4.52; at BAZ1B, 4.42; on BAZ2B it was 5.04; at BRD8(1) it was 4.55; at BRD8(2) it was 4.40. The pKd is 6.22 at BRPF1; 5.80 at EP300; 4.92 at GCN5L2; 5.34 at SMARCA2; 5.21 at SMARCA2(iso.A); under 4.30 on TRIM33(PHD,BRD) (KD, BROMOscan Gene Symbol TRIM33(PHD,Bromo.)). On WDR9(2) (KD, BROMOscan Gene Symbol WDR9(2)), this molecule showed a negative logarithm of the Kd (pKd) of under 4.30. The Kd at TRIM33(PHD,BRD) (setting [1]) and on WDR9(2) (setting [1]) was over 30000 nM throughout.
